Assay: Phase I multiple ascending-dose study: safety and tolerability (treatment-emergent adverse events)
Type: in vivo, human (healthy volunteers)
Method: A single-center, randomized, double-blind, placebo-controlled phase I study (NCT03554993) with a MAD component was performed in the UK between May 2018 and July 2019. Thirty-seven healthy volunteers of any race, ethnicity, or sex were enrolled. The inclusion criteria were 18 to 55 years of age inclusive, body mass index 18 to 33 kg/m^2, and physical examination by the investigator without clinically significant findings. Subjects were excluded if any clinically significant medical history, laboratory abnormality, psychiatric illness, or other condition existed that would place the subject at unacceptable risk by participating in the study. Pregnancy prevention guidance was provided as per Clinical Trial Facilitation Group recommendations. Subjects were randomly assigned to daily oral doses of CC-99677 or placebo. Subjects were dosed daily for 14 days. […] Both the investigator and subjects were blinded to the treatment arm. Safety assessments, including physical examinations, clinical laboratory tests, and collection of adverse events (AEs) were performed and graded using MedDRA version 22.0 and the US Food and Drug Administration (FDA) Toxicity Grading Scale for Healthy Adult and Adolescent Volunteers. The primary outcome of this trial was the safety and tolerability of multiple daily doses of CC-99677.

CCOCc1cnc(Cl)nc1Oc1ccc2c(ccc3sc4c(c32)NC[C@@H](C)NC4=O)n1 [CC-99677]
Subjects with ≥ 1 treatment-emergent AE (10 mg daily, 14 days (n = 5)): 3 (60.0) n (%) | TEAE: Abdominal pain (10 mg daily, 14 days (n = 5)): 0 n (%) | TEAE: Alanine aminotransferase increased (10 mg daily, 14 days (n = 5)): 0 n (%) | TEAE: Aspartate aminotransferase increased (10 mg daily, 14 days (n = 5)): 0 n (%) | TEAE: Back pain (10 mg daily, 14 days (n = 5)): 0 n (%) | TEAE: Blood creatine phosphokinase increased (10 mg daily, 14 days (n = 5)): 0 n (%) | TEAE: Catheter site related reaction (10 mg daily, 14 days (n = 5)): 0 n (%) | TEAE: Chapped lips (10 mg daily, 14 days (n = 5)): 0 n (%) | TEAE: Constipation (10 mg daily, 14 days (n = 5)): 0 n (%) | TEAE: Diarrhea (10 mg daily, 14 days (n = 5)): 0 n (%) | TEAE: Dizziness (10 mg daily, 14 days (n = 5)): 1 (20.0) n (%) | TEAE: Dysmenorrhea (10 mg daily, 14 days (n = 5)): 0 n (%) | TEAE: Dyspepsia (10 mg daily, 14 days (n = 5)): 1 (20.0) n (%) | TEAE: Ear and labyrinth disorders (10 mg daily, 14 days (n = 5)): 1 (20.0) n (%) | TEAE: Ear pain (10 mg daily, 14 days (n = 5)): 1 (20.0) n (%) | TEAE: Flushing (10 mg daily, 14 days (n = 5)): 0 n (%) | TEAE: Gastrointestinal disorders (10 mg daily, 14 days (n = 5)): 2 (40.0) n (%) | TEAE: General disorders and administration site conditions (10 mg daily, 14 days (n = 5)): 2 (40.0) n (%) | TEAE: Headache (10 mg daily, 14 days (n = 5)): 2 (40.0) n (%) | TEAE: Hot flush (10 mg daily, 14 days (n = 5)): 0 n (%) | TEAE: Infections and infestations (10 mg daily, 14 days (n = 5)): 1 (20.0) n (%) | TEAE: Injury, poisoning, and procedural complications (10 mg daily, 14 days (n = 5)): 1 (20.0) n (%) | TEAE: Insomnia (10 mg daily, 14 days (n = 5)): 1 (20.0) n (%) | TEAE: Investigations (10 mg daily, 14 days (n = 5)): 0 n (%) | TEAE: Muscle strain (10 mg daily, 14 days (n = 5)): 1 (20.0) n (%) | TEAE: Musculoskeletal and connective tissue disorders (10 mg daily, 14 days (n = 5)): 0 n (%) | TEAE: Musculoskeletal pain (10 mg daily, 14 days (n = 5)): 0 n (%) | TEAE: Myalgia (10 mg daily, 14 days (n = 5)): 0 n (%) | TEAE: Nasopharyngitis (10 mg daily, 14 days (n = 5)): 0 n (%) | TEAE: Nausea (10 mg daily, 14 days (n = 5)): 2 (40.0) n (%) | TEAE: Nervous system disorders (10 mg daily, 14 days (n = 5)): 2 (40.0) n (%) | TEAE: Oropharyngeal pain (10 mg daily, 14 days (n = 5)): 1 (20.0) n (%) | TEAE: Psychiatric disorders (10 mg daily, 14 days (n = 5)): 1 (20.0) n (%) | TEAE: Rash pustular (10 mg daily, 14 days (n = 5)): 1 (20.0) n (%) | TEAE: Rectal hemorrhage (10 mg daily, 14 days (n = 5)): 0 n (%) | TEAE: Reproductive system and breast disorders (10 mg daily, 14 days (n = 5)): 0 n (%) | TEAE: Respiratory, thoracic, and mediastinal disorders (10 mg daily, 14 days (n = 5)): 1 (20.0) n (%) | TEAE: Sensation of foreign body (10 mg daily, 14 days (n = 5)): 1 (20.0) n (%) | TEAE: Vascular disorders (10 mg daily, 14 days (n = 5)): 0 n (%) | TEAE: Vessel puncture site pain (10 mg daily, 14 days (n = 5)): 1 (20.0) n (%) | TEAE: Vessel puncture site reaction (10 mg daily, 14 days (n = 5)): 0 n (%) | Subjects with ≥ 1 treatment-emergent AE (30 mg daily, 14 days (n = 6)): 4 (66.7) n (%) | TEAE: Abdominal pain (30 mg daily, 14 days (n = 6)): 0 n (%) | TEAE: Alanine aminotransferase increased (30 mg daily, 14 days (n = 6)): 0 n (%) | TEAE: Aspartate aminotransferase increased (30 mg daily, 14 days (n = 6)): 0 n (%) | TEAE: Back pain (30 mg daily, 14 days (n = 6)): 0 n (%) | TEAE: Blood creatine phosphokinase increased (30 mg daily, 14 days (n = 6)): 0 n (%) | TEAE: Catheter site related reaction (30 mg daily, 14 days (n = 6)): 0 n (%) | TEAE: Chapped lips (30 mg daily, 14 days (n = 6)): 1 (16.7) n (%) | TEAE: Constipation (30 mg daily, 14 days (n = 6)): 0 n (%) | TEAE: Diarrhea (30 mg daily, 14 days (n = 6)): 0 n (%) | TEAE: Dizziness (30 mg daily, 14 days (n = 6)): 1 (16.7) n (%) | TEAE: Dysmenorrhea (30 mg daily, 14 days (n = 6)): 0 n (%) | TEAE: Dyspepsia (30 mg daily, 14 days (n = 6)): 0 n (%) | TEAE: Ear and labyrinth disorders (30 mg daily, 14 days (n = 6)): 0 n (%) | TEAE: Ear pain (30 mg daily, 14 days (n = 6)): 0 n (%) | TEAE: Flushing (30 mg daily, 14 days (n = 6)): 0 n (%) | TEAE: Gastrointestinal disorders (30 mg daily, 14 days (n = 6)): 2 (33.3) n (%) | TEAE: General disorders and administration site conditions (30 mg daily, 14 days (n = 6)): 0 n (%) | TEAE: Headache (30 mg daily, 14 days (n = 6)): 0 n (%) | TEAE: Hot flush (30 mg daily, 14 days (n = 6)): 0 n (%) | TEAE: Infections and infestations (30 mg daily, 14 days (n = 6)): 1 (16.7) n (%) | TEAE: Injury, poisoning, and procedural complications (30 mg daily, 14 days (n = 6)): 0 n (%) | TEAE: Insomnia (30 mg daily, 14 days (n = 6)): 0 n (%) | TEAE: Investigations (30 mg daily, 14 days (n = 6)): 0 n (%) | TEAE: Muscle strain (30 mg daily, 14 days (n = 6)): 0 n (%) | TEAE: Musculoskeletal and connective tissue disorders (30 mg daily, 14 days (n = 6)): 2 (33.3) n (%) | TEAE: Musculoskeletal pain (30 mg daily, 14 days (n = 6)): 0 n (%) | TEAE: Myalgia (30 mg daily, 14 days (n = 6)): 2 (33.3) n (%) | TEAE: Nasopharyngitis (30 mg daily, 14 days (n = 6)): 1 (16.7) n (%) | TEAE: Nausea (30 mg daily, 14 days (n = 6)): 0 n (%) | TEAE: Nervous system disorders (30 mg daily, 14 days (n = 6)): 1 (16.7) n (%) | TEAE: Oropharyngeal pain (30 mg daily, 14 days (n = 6)): 0 n (%) | TEAE: Psychiatric disorders (30 mg daily, 14 days (n = 6)): 0 n (%) | TEAE: Rash pustular (30 mg daily, 14 days (n = 6)): 0 n (%) | TEAE: Rectal hemorrhage (30 mg daily, 14 days (n = 6)): 1 (16.7) n (%) | TEAE: Reproductive system and breast disorders (30 mg daily, 14 days (n = 6)): 0 n (%) | TEAE: Respiratory, thoracic, and mediastinal disorders (30 mg daily, 14 days (n = 6)): 0 n (%) | TEAE: Sensation of foreign body (30 mg daily, 14 days (n = 6)): 0 n (%) | TEAE: Vascular disorders (30 mg daily, 14 days (n = 6)): 0 n (%) | TEAE: Vessel puncture site pain (30 mg daily, 14 days (n = 6)): 0 n (%) | TEAE: Vessel puncture site reaction (30 mg daily, 14 days (n = 6)): 0 n (%) | Subjects with ≥ 1 treatment-emergent AE (60 mg daily, 14 days (n = 6)): 1 (16.7) n (%) | TEAE: Abdominal pain (60 mg daily, 14 days (n = 6)): 0 n (%) | TEAE: Alanine aminotransferase increased (60 mg daily, 14 days (n = 6)): 0 n (%) | TEAE: Aspartate aminotransferase increased (60 mg daily, 14 days (n = 6)): 0 n (%) | TEAE: Back pain (60 mg daily, 14 days (n = 6)): 0 n (%) | TEAE: Blood creatine phosphokinase increased (60 mg daily, 14 days (n = 6)): 0 n (%) | TEAE: Catheter site related reaction (60 mg daily, 14 days (n = 6)): 0 n (%) | TEAE: Chapped lips (60 mg daily, 14 days (n = 6)): 0 n (%) | TEAE: Constipation (60 mg daily, 14 days (n = 6)): 0 n (%) | TEAE: Diarrhea (60 mg daily, 14 days (n = 6)): 0 n (%) | TEAE: Dizziness (60 mg daily, 14 days (n = 6)): 0 n (%) | TEAE: Dysmenorrhea (60 mg daily, 14 days (n = 6)): 0 n (%) | TEAE: Dyspepsia (60 mg daily, 14 days (n = 6)): 0 n (%) | TEAE: Ear and labyrinth disorders (60 mg daily, 14 days (n = 6)): 0 n (%) | TEAE: Ear pain (60 mg daily, 14 days (n = 6)): 0 n (%) | TEAE: Flushing (60 mg daily, 14 days (n = 6)): 0 n (%) | TEAE: Gastrointestinal disorders (60 mg daily, 14 days (n = 6)): 0 n (%) | TEAE: General disorders and administration site conditions (60 mg daily, 14 days (n = 6)): 0 n (%) | TEAE: Headache (60 mg daily, 14 days (n = 6)): 1 (16.7) n (%) | TEAE: Hot flush (60 mg daily, 14 days (n = 6)): 0 n (%) | TEAE: Infections and infestations (60 mg daily, 14 days (n = 6)): 0 n (%) | TEAE: Injury, poisoning, and procedural complications (60 mg daily, 14 days (n = 6)): 0 n (%) | TEAE: Insomnia (60 mg daily, 14 days (n = 6)): 0 n (%)

Source: PMC9386913 (Arthritis Research & Therapy, 2022)
